From publication PMC3862803, “Human Breast Tumor Cells Are More Resistant to Cardiac Glycoside Toxicity Than Non-Tumorigenic Breast Cells” (PLoS ONE, 2013)
Where two headings read alike, the source gives them in different places.

Tests used:
MCF10CA1 cells [1] = experiment: PrestoBlue viability assay; type: cell-based; conditions: Homo sapiens; MCF10CA1, 24 hours; mean ± SE, n>3; read-out: Reduced cell viability (IC50)
Protocol: (§1) To determine cell growth curves, cells were trypsinized, counted using a Scepter Cell Counter (Millipore, Billerica, MA), plated in a 96-well plate at a density of 1,000, 3,000, 5,000, or 10,000 cells per well, and allowed to attach overnight. On day 2, growth curves were determined using the PrestoBlue Viability Assay (Life Technologies, Grand Island, NY) to ensure cell densities used for viability and proliferation assays were in linear growth phase.

184A1 cells = experiment: PrestoBlue viability assay; type: cell-based; conditions: Homo sapiens; 184A1, 24 hours; mean ± SE, n>3; read-out: Reduced cell viability (IC50)
Protocol: as §1

184D cells = experiment: PrestoBlue viability assay; type: cell-based; conditions: Homo sapiens, 24 hours, mean ± SE, n>3, read-out: Reduced cell viability (IC50)
Protocol: as §1

MDA-MB-231 cells [2] = experiment: PrestoBlue viability assay; type: cell-based, human; conditions: for IC50: Homo sapiens, MDA-MB-231, 24 h, read-out: Reduced cell viability (IC50)
MCF10A cells [3] = experiment: PrestoBlue viability assay; type: cell-based, human; conditions: for IC50: Homo sapiens, MCF-10A, 24 hours, mean ± SE, n>3, read-out: Reduced cell viability (IC50)
Protocol: as §1

MCF10CA1 cells [4] = experiment: TUNEL apoptosis assay; type: cell-based, human; conditions: 6 hours
Protocol: (§2) As a positive control, MCF10A and MCF10CA1 cells were treated with DNaseI for 15 minutes prior to assay. Cells were fixed and permeabilized prior to Terminal deoxynucleotidyl transferase dUTP nick end labeling (TUNEL) staining of DNA fragmentation using the ApopTag Fluorescein In Situ Apoptosis Detection Kit according to manufacturer’s instructions (Millipore, Billerica, MA). Slides were covered with Vectashield Mounting Medium with DAPI (Vector Laboratories, Burlingame, CA) and sealed with a glass coverslip. Images were detected and analyzed using Zeiss LSM 5 Pascal microscope and software.

MCF10A cells [5] = experiment: TUNEL apoptosis assay; type: cell-based, human; conditions: 6 hours
Protocol: as §2

MDA-MB-231 cells [6] = experiment: TUNEL apoptosis assay; type: cell-based, human; conditions: 6 hours
Protocol: as §2

MCF7 cells [7] = experiment: TUNEL apoptosis assay; type: cell-based, human; conditions: 6 hours
Na,K-ATPase = molecular target: T1, Na,K-ATPase (Homo sapiens, UniProt P05023); experiment: biochemical; type: biochemical; conditions: for IC50: mean ± SE, n>3, read-out: IC50 for CTS inhibition of ATPase activity
T1 construct: The Na,K-ATPase activity in total membranes isolated from non-tumorous 184D, 184A, and MCF10A (10A) cells; endogenous in cells; host or cells: total membranes of MCF10A, 184D, 184A1, MCF10CA1, MCF7 and MDA-MB-231 human breast cells
Protocol: Total membranes (TM) were prepared from cells as previously described [37] and resuspended in cold homogenizing buffer (10 mM Tris-HCl, 2 mM EDTA, 250 mM sucrose, pH 7.4) containing Complete-Mini Protease Inhibitor Cocktail Tablets (Roche, Indianapolis, IN).
The ATPase activity assay of isolated TM from cells was performed for 30 min at 37°C as previously described [38].

MCF10CA1 cells [8] = experiment: BrdU cell proliferation assay; type: cell-based, human
p-ERK1/2 = experiment: Western blot of cell lysates for p-ERK1/2; type: cell-based, human; conditions: for p-ERK levels in lysates (western blot): 50 nM or 500 nM ouabain for 24 hours; for p-ERK1/2 levels in lysates (western blot): 500 nM ouabain
Protocol: Total cell lysate preparations were made by incubating cell pellets in lysis buffer (150 mM NaCl, 50 mM Tris, 1% CHAPS, pH 7.4) for 30 minutes at 4°C. Lysates were cleared at 15,000 x g for 10 minutes and the soluble protein supernatant was collected for analysis. Protein concentrations were determined using the Coomassie Protein Assay Kit (Pierce, Rockford, IL).
Protein samples were subject to western blot analysis according to previously described procedures [39]. Transferred proteins were blocked using either 5% dried milk, 0.1% Tween-20 in phosphate-buffered saline or 5% bovine serum albumin, 0.1% Tween-20 in Tris-buffered saline. PVDF membranes were sequentially probed with primary antibodies and horseradish peroxidase-conjugated secondary antibodies according to manufacturer’s recommendations. Luminata Forte Western HRP Substrate (Millipore, Billerica, MA) was used for peroxidase detection and the resulting signal intensity was quantified on a BioRad Chemidoc XRS using Quantity One Version 4.6.2 software. When appropriate, signal intensity from anti-actin antibody was used as a protein loading control.

MDA-MB-231 cells [9] = experiment: BrdU cell proliferation assay; type: cell-based, human
MCF7 cells [10] = experiment: BrdU cell proliferation assay; type: cell-based, human; conditions: 500 nM ouabain for 24 hours
Protocol: BrdU label was added to cells in fresh culture medium with or without ouabain for two hours according to manufacturer’s recommendations. BrdU incorporation into the DNA of proliferating cells was detected using an anti-BrdU primary antibody and Peroxidase Goat Anti-mouse secondary antibody. Fluorescence was quantified using a FLUOStar Omega microplate reader (BMG Labtech).

MCF10A cells [11] = experiment: BrdU cell proliferation assay; type: cell-based, human; conditions: 500 nM ouabain for 2 hours, P<0.001
prostate cancer = conditions: digoxin use, large prospective cohort study; cited from earlier work
[12] = 24 hour ouabain at high concentrations (500 nM)

## C[C@]12CC[C@H](O)C[C@H]1CC[C@@H]1[C@@H]2CC[C@]2(C)[C@@H](c3ccc(=O)oc3)CC[C@]12O [Bufalin, bufalin]
MCF10CA1 cells [1]
  IC50: 635 ± 172 nM
184A1 cells
  IC50: 319 ± 6.1 nM
184D cells
  IC50: 329 ± 11.2 nM
MDA-MB-231 cells [2]
  IC50: 936.4 ± 4.9 nM
MCF10A cells [3]
  IC50: 465 ± 25.9 nM
MCF10CA1 cells [4]; 50 nM bufalin
  Cells exhibiting DNA fragmentation (TUNEL), a marker for apoptosis: < 5%
MCF10A cells [5]; 50 nM bufalin
  Cells exhibiting DNA fragmentation (TUNEL), a marker for apoptosis: Over 90%
MDA-MB-231 cells [6]; 50 nM bufalin
  Cells exhibiting DNA fragmentation (TUNEL), a marker for apoptosis: < 5%
MCF7 cells [7]; 50 nM bufalin
  Cells exhibiting DNA fragmentation (TUNEL), a marker for apoptosis: < 5%

## C[C@H]1O[C@@H](O[C@H]2[C@@H](O)C[C@H](O[C@H]3[C@@H](O)C[C@H](O[C@H]4CC[C@@]5(C)[C@H](CC[C@@H]6[C@@H]5CC[C@]5(C)[C@@H](C7=CC(=O)OC7)CC[C@]65O)C4)O[C@@H]3C)O[C@@H]2C)C[C@H](O)[C@@H]1O [Digitoxin, digitoxin]
MCF10CA1 cells [1]
  IC50: 3680 ± 89.5 nM
184A1 cells
  IC50: 1440 ± 29.3 nM
184D cells
  IC50: 1270 ± 65.4 nM
MDA-MB-231 cells [2]
  IC50: 3680 ± 150 nM
MCF10A cells [3]
  IC50: 1570 ± 191 nM
Na,K-ATPase; total membranes of 184A1 cells
  IC50: 1830 ± 88.7 nM
Na,K-ATPase; total membranes of 184D cells
  IC50: 2070 ± 307 nM
Na,K-ATPase; total membranes of MCF7 cells
  IC50: 1160 ± 42.7 nM
Na,K-ATPase; total membranes of MCF10A cells
  IC50: 1350 ± 85.2 nM
Na,K-ATPase; total membranes of MCF10CA1 cells
  IC50: 1480 ± 73.8 nM
Na,K-ATPase; total membranes of MDAMB231 cells
  IC50: 1180 ± 155 nM

## C[C@@H]1O[C@@H](O[C@H]2C[C@@H](O)[C@]3(CO)[C@H]4[C@H](O)C[C@]5(C)[C@@H](C6=CC(=O)OC6)CC[C@]5(O)[C@@H]4CC[C@]3(O)C2)[C@H](O)[C@H](O)[C@H]1O [Ouabain, ouabain]
MCF10CA1 cells [1]
  IC50: 2670 ± 574 nM
184A1 cells
  IC50: 1490 ± 45.3 nM
184D cells
  IC50: 1350 ± 155 nM
MDA-MB-231 cells [2]; MDA-MB-231, 0-10% serum, 500 nM ouabain for 24 hours
  Cell viability at varied serum concentration: not affected
MCF10A cells [3]; 500 nM ouabain, after 2 days (0 to 48 hours)
  Cell viability over treatment duration: nearly all of the MCF10A cells have died
MCF10A cells [3]
  IC50: 2170 ± 192 nM
MCF10A cells [3]; reduced serum (0-10% serum), 500 nM ouabain for 24 hours
  Cell viability at varied serum concentration: increased ouabain sensitivity
MCF10CA1 cells [8]; [12]
  Proliferation (BrdU incorporation): slight decrease in proliferation
MCF10CA1 cells [8]; short-term (2 hours) ouabain
  Proliferation (BrdU incorporation): not affected
p-ERK1/2; A2780CP (cisplatin resistant) cells
  p-ERK levels in lysates (western blot): increased levels of p-ERK
p-ERK1/2; A2780 cells
  p-ERK levels in lysates (western blot): increased levels of p-ERK
p-ERK1/2; MCF10A, 24 hours (any treatment condition)
  p-ERK1/2 levels in lysates (western blot): did not contain detectable levels of activated p-ERK1/2
p-ERK1/2; MCF10CA1, 24 hours
  p-ERK1/2 levels in lysates (western blot): elevated p-ERK1/2 levels
p-ERK1/2; MDA-MB-231, 24 hours
  p-ERK1/2 levels in lysates (western blot): elevated p-ERK1/2 levels
MDA-MB-231 cells [9]; [12]
  Proliferation (BrdU incorporation): slight decrease in proliferation
MDA-MB-231 cells [9]; short-term (2 hours) ouabain
  Proliferation (BrdU incorporation): not affected
MCF10CA1 cells [4]; 500 nM ouabain
  Cells exhibiting DNA fragmentation (TUNEL), a marker for apoptosis: < 5%
MCF10A cells [5]; 500 nM ouabain
  Cells exhibiting DNA fragmentation (TUNEL), a marker for apoptosis: Over 90%
MDA-MB-231 cells [6]; 500 nM ouabain
  Cells exhibiting DNA fragmentation (TUNEL), a marker for apoptosis: < 5%
MCF7 cells [10]
  Proliferation (BrdU incorporation): no change to proliferation
Na,K-ATPase; MCF10A isolated membranes, 0-10% serum, 500 nM ouabain, p > 0.05
  ATPase inhibition at varied serum level: No significant difference in ATPase inhibition
MCF10A cells [11]
  Proliferation (BrdU incorporation): decrease in proliferation
MCF7 cells [7]; 500 nM ouabain
  Cells exhibiting DNA fragmentation (TUNEL), a marker for apoptosis: < 5%

## C[C@H]1O[C@@H](O[C@H]2[C@@H](O)C[C@H](O[C@H]3[C@@H](O)C[C@H](O[C@H]4CC[C@@]5(C)[C@H](CC[C@@H]6[C@@H]5C[C@@H](O)[C@]5(C)[C@@H](C7=CC(=O)OC7)CC[C@]65O)C4)O[C@@H]3C)O[C@@H]2C)C[C@H](O)[C@@H]1O [digoxin]
Prostate cancer
  Prevention of prostate cancer: ≤ 25%
